# Measurements taken from patent publication US8242058B2, “Reagents and methods for appending functional groups to proteins” (Wisconsin Alumni Research Foundation, priority 2006, dated 2012).
# Assays:
# [1] = cited from earlier work
# [2] = Kinetics of thioester cleavage (release of thiophenolate, absorbance at 410 nm); settings: for fold greater k1 value than ethyl amine: pseudo-unimolecular conditions
# Description: To identify the optimal nitrogen nucleophile for a thioester, kinetic studies were performed on a model chromogenic thioester: AcGlySC6H4-p-NO2. The rate of release of the thiophenolate anion was monitored by measuring the change in absorbance at 410 nm (Scheme 1). Nitrogen nucleophiles with conjugate-acid pKa values ranging from 4.6 to 10.6 (Table 1) were used in the experiments. The logarithmic values of the second-order rate constants (k2) of the unprotonated primary amines were plotted against the pKa values of their conjugate acids to yield the Brønsted plot shown in FIG. 2A. The data were fitted to the equation^[26]: log k2=log(AB)+(β+β′)pKa−log(A10^βpK^a+B10^β′pK^a) (1) In eq 1, A and B are constants, β′ is the slope of the former part of the Brønsted plot, and β is the slope of the latter part.
# Kinetics of thioester cleavage: AcGlySC6H4-p-NO2 was dissolved in anhydrous acetonitrile to a concentration of 0.45 mM and used immediately. Amine solutions (except CF3CH2NH2.HCl) were prepared by dissolving the amine hydrochloride salts in 0.10 M sodium phosphate buffer at pH 7.0 to a concentration of 0.15 M. Reaction mixtures were prepared in a 1,1-mL volume and equilibrated at 25° C. All reactions contained […] acetonitrile. The ionic strength of each reaction mixture was I=0.22-0.25. All reactions were carried out with a large excess of amine and followed pseudo-first-order kinetics. In a cuvette containing 0.10 M sodium phosphate buffer at pH 7.0 (967 μL), amine solution (0.15 M, 100 μL) was added and the absorbance at 410 nm was adjusted to zero. The thioester (33 μL of a 0.45 mM solution in acetonitrile) was then added to the cuvette, and the absorbance at 410 nm was monitored with time (ε=11,230 M^−1cm^−1 for p-nitrothiophenolate anion). […] This value is likely to be lower in an aqueous buffer, such that the ionization of the p-nitrothiophenol product is virtually complete in all our assays. The final concentration of the thioester in the reaction was 13.64 μM and the final concentration of the amines (except CF3CH2NH2.HCl) was 13.64 mM. Each reaction was performed in triplicate. The reactions were allowed to go to completion, and the t1/2 was determined from the kinetic trace. The t1/2 was corrected by subtracting the t1/2 for hydrolysis from the observed value. Pseudo-first-order rate constants were calculated by using the equation k1=0.693/t1/2. Second-order rate constants were obtained by dividing each observed first-order rate constant by the concentration of free amine. Logarithmic values of second-order rate constants were plotted against the pKa values of the conjugate acids of the respective amines to yield a Brønsted plot.
# Using a higher buffer concentration was not ideal, as that would increase the ionic strength to a much value much larger than that in other reaction mixtures. To overcome these problems, the reaction with CF3CH2NH2 was carried out using 40.92 mM CF3CH2NH2.HCl and allowing the pH of the reaction mixture to decrease to 5.8. The observed t12 was corrected by subtracting the t12 for hydrolysis at pH 5.8. The second-order rate constant was calculated by accounting for the concentration of free amine at pH 5.8, and the resulting value was used in the Brønsted plot. The first-order rate constant thus obtained was not compared to those for the other nucleophiles.
# [3] = Storage stability of the reagent; format: physicochemical; settings: TFA salt, storage under vacuum
# Source text: Azide 2 was synthesized by the route in Scheme 3. Briefly, 4-pentenoic acid was subjected to ozonolysis, and the resulting aldehyde was reacted in-situ with Boc-protected hydrazine. The azido group was installed by coupling 1-azido-2-aminoethane (4) to the carboxylic acid. The hydrazone was then reduced selectively with NaCNBH3. The Boc group was removed to produce azide 2 as its trifluoroacetic acid (TFA) salt with an overall yield of 26% (which includes the 80% yield for the synthesis of azide 3).
# [4] = tested on: 6-carboxyfluorescein-dArU(dA)2-6-carboxytetramethylrhodamine; test: RNase A activity assay on immobilized RNase A; format: biochemical; settings: chip overlaid with 10 μM protein, pH 6.0
# Description: RNase A activity assay on immobilized RNase A. A phosphinothioester chip was overlaid with azido-RNase A (10 μM in 5% DMF/H2O) for 15 min in Ar(g) atmosphere in an AtmosBag™ to immobilize RNase A via Staudinger ligation. The chip was rinsed with sodium phosphate buffer (25 mM) at pH 7.5 (2×20 mL) and then introduced into a vial containing 2-(N-Morpholino)ethanesulfonic acid buffer (0.1 M) at pH 6.0 (22 mL, containing 0.1 M NaCl). A fluorogenic substrate of RNase A, 6-carboxyfluorescein-dArU(dA)2-6-carboxytetramethylrhodamine (10 μl of a 40 μM solution), was introduced into the vial. The vial was placed on a shaker and 2 mL aliquots were withdrawn at various time intervals and the fluorescence measured (λex=493 nm, λem=515 nm). The fluorescence intensity was plotted against time. A phosphinothioester chip was overlaid with wt-RNase A (10 μM in 5% DMF/H2O) and rinsed with sodium phosphate buffer (25 mM) at pH 7.5 (2×20 mL) and a similar assay was performed. As a negative control, a similar assay was performed on a phosphinothioester chip which was not overlaid with RNase A. The percentage of the fluorescent substrate cleaved at various time intervals were subtracted from the corresponding values for the negative control to generate the graph in FIG. 8.
# [5] = target: T1, ribonuclease inhibitor protein (RI) (Homo sapiens, UniProt P13489); test: RI binding to immobilized RNase A (immunoassay, ellipsometry); settings: RI 10 μM, 10 min at 4° C.
# T1 sequence (P13489 2-461 limits assumed): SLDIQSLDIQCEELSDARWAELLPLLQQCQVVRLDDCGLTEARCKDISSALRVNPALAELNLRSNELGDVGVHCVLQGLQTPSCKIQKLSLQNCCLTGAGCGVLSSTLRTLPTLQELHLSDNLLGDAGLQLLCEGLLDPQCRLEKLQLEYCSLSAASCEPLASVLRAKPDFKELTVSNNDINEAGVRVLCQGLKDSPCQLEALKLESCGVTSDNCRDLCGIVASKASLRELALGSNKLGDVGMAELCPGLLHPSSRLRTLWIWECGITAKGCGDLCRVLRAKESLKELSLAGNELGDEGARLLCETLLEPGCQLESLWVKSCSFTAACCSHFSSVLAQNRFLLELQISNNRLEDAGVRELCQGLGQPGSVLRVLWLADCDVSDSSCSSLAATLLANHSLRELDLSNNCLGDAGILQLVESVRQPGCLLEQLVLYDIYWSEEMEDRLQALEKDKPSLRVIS
# Description: RI binding to immobilized RNase A. Azido-RNase A (1 μL, 10 μM in 5% DMF/water) was spotted on phosphinothioester-displaying SAMs on a gold chip for 15 minutes at r.t. in an AtmosBag™ filled with Ar(g). The chip was taken out of the bag and rinsed with sodium phosphate buffer (25 mM) at pH 7.5 (2×20 mL) and incubated in the same buffer for 30 min to remove non-specifically bound RNase A. RI (10 μM in sodium phosphate buffer (25 mM) at pH 7.5 containing 10 mM DTT) was overlaid on the chip for 10 min at 4° C. The chip was then rinsed with sodium phosphate buffer (25 mM) at pH 7.5 containing 10 mM DTT (2×20 mL) and incubated in the same buffer for 15 min.
# Detection of RI bound to immobilized RNase A. (i) Immunoassay: After RI binding, the chip was overlaid with bovine serum albumin (2.0 mg/mL in sodium phosphate buffer (25 mM) at pH 7.5) for 15 min. The chip was rinsed with sodium phosphate buffer (25 mM) at pH 7.5 (2×20 mL) and subsequently incubated with chicken primary antibody to RI (12.5 μg/mL in sodium phosphate buffer (25 mM) at pH 7.5) for 15 min. […] The chip was scanned with a Genomic Solutions® GeneTac UC4×4 Fluorescence Scanner using a gain of 50. […]
molecule,measurement,setting,value
NCC(F)(F)F [F3CCH2NH2],pKa of conjugate acid,[1],5.40^[23]
same,nucleophilicity at pH 7.0 (aminolysis versus hydrolysis),"[2]; pH 7.0, standard reaction conditions",poor nucleophile
CCN [CH3CH2NH2],pKa of conjugate acid,[1],10.63^[22]
same,"nucleophilicity of unprotonated amines (k2, Brønsted plot)","[2]; all amines deprotonated, 25° C.",best nucleophile
CCOC(=O)CNN [C2H5O(O)CCH2NHNH2],pKa of conjugate acid,[1],6.45^[24]
same,fold greater k1 value than ethyl amine,"[2]; pH 7.0, 25° C.",30 fold
COC(=O)CN [CH3O(O)CCH2NH2],pKa of conjugate acid,[1],7.75^[22]
CON [CH3ONH2],pKa of conjugate acid,[1],4.60^[22]
CNN [CH3NHNH2],pKa of conjugate acid,[1],7.87^[25]
same,fold greater k1 value than ethyl amine,"[2]; pH 7.0, 25° C.",100 fold
CF3CO2H.H2NNHCH2CH2CH2CONHCH2CH2N3 [azide 2],stability on storage,[3],unstable
same,rate constants (k2 and k1) for thioester cleavage,"[2]; pH 7.0, 25° C.",much lower than those of methylhydrazine
NCCO [HOCH2CH2NH2],pKa of conjugate acid,[1],9.50^[22]
"wild-type RNase A: bovine pancreatic ribonuclease (RNase A), unmodified wild-type, Sigma Chemical (protein, UniProt P61823 27-150, looked up) Ribonuclease pancreatic: KETAAAKFERQHMDSSTSAASSSNYCNQMMKSRNLTKDRCKPVNTFVHESLADVQAVCSQKNVACKNGQTNCYQSYSTMSITDCRETGSSKYPNCAYKTTQANKHIIVACEGNPYVPVHFDASV",enzymatic activity of chip incubated with the protein (increase of fluorescence intensity),[4],small enzymatic activity
same,RI binding to chip incubated with the protein,[5],No RI binding was observed
